“And” between values parts separate entries of the source, which are not always exact repeats. Equal values may be shown once. The source made the active and inactive calls. The calls are words filed in the database; no cut-off is given here.
Tested on: Mus musculus
Assay: Anticonvulsant activity of compound was tested in mice after intraperitoneal administration in Maximal electroshock assay (MES); Inactive at 70 mg/kg dose
Assay type: functional, organism-based
Design: dose 70 mg/kg
Conditions: not given

Q: With COc1ccc([C@@H](O)[C@H](C)NC(C)(C)C)cc1 as the compound, how does the ED50 read?
A: inactive

Tested on: Mus musculus
Assay: Anticonvulsant activity of compound was tested in mice after intraperitoneal administration in Maximal electroshock assay (MES); Inactive at 13 mg/kg dose
Assay type: functional, organism-based
Design: dose 13 mg/kg
Conditions: not given

Q: How did the ED50 turn out when CCCCN[C@H](C)[C@H](O)c1cccc(C(F)(F)F)c1 was run?
A: inactive

Tested on: Mus musculus
Assay: Anticonvulsant activity measured in Maximal electroshock assay (MES), intraperitoneal administration
Assay type: functional
Conditions: not given

Q: For C[C@@H](NC(C)(C)C)[C@H](O)c1cccc(Cl)c1 [ERYTHRO-HYDROBUPROPION], which ED50 is on record?
A: 11 mg/kg

Q: With C[C@H](NC(C)(C)C)[C@H](O)c1cccc(Cl)c1 [ERYTHRO-HYDROBUPROPION] as the compound, how does the ED50 read?
A: 28 mg/kg

Q: How did the ED50 turn out when C[C@@H](NC(C)(C)C)[C@H](O)c1cccc(C(F)(F)F)c1 was run?
A: 17 mg/kg and 22 mg/kg

Q: Which ED50 does the source give for CC(NC(C)(C)C)[C@H](O)c1ccccc1 (single isomer, unassigned) here?
A: 25 mg/kg

Q: For CC(NC(C)(C)C)C(O)c1cccc(Cl)c1 (racemic; form 1) [ERYTHRO-HYDROBUPROPION], which ED50 is on record?
A: 14 mg/kg

Q: How did the ED50 turn out when CC(NC(C)(C)C)C(O)c1cccc(C(F)(F)F)c1 (racemic; form 1) was run?
A: 16 mg/kg

Q: With CC(NC(C)(C)C)C(O)c1cccc(Cl)c1 (racemic; form 2) [ERYTHRO-HYDROBUPROPION] as the compound, how does the ED50 read?
A: 26 mg/kg

Same assay, conditions: Mus musculus, ip; read-out: ED50

Q: With C[C@@H](NC(C)(C)C)[C@H](O)c1ccccc1 as the compound, how does the ED50 read?
A: 14 mg/kg

Q: C[C@@H](NC(C)(C)C)[C@H](O)c1cccc(Br)c1 was tested. Which ED50 did it give?
A: 11 mg/kg

Q: CC[C@H](NC(C)(C)C)[C@H](O)c1cccc(Cl)c1 was tested. Which ED50 did it give?
A: 26 mg/kg

Q: CC(C)N[C@@H](C)[C@H](O)c1cccc(Cl)c1 was tested. Which ED50 did it give?
A: 20 mg/kg

Q: With C[C@H](NC(C)(C)C)[C@H](O)c1cccc(Br)c1 as the compound, how does the ED50 read?
A: 16 mg/kg

Q: With CCC[C@H](NC(C)(C)C)[C@H](O)c1cccc(Cl)c1 as the compound, how does the ED50 read?
A: 31 mg/kg

Q: With CCC(C)(C)N[C@H](C)[C@H](O)c1cccc(Cl)c1 as the compound, how does the ED50 read?
A: 11 mg/kg

Q: CCC(C)(C)N[C@@H](C)[C@H](O)c1cccc(C(F)(F)F)c1 was tested. Which ED50 did it give?
A: 28 mg/kg

Q: With CC[C@@H](NC(C)(C)C)[C@H](O)c1cccc(C(F)(F)F)c1 as the compound, how does the ED50 read?
A: 31 mg/kg

Q: Which ED50 does the source give for CC[C@H](NC(C)(C)C)[C@H](O)c1cccc(C(F)(F)F)c1 here?
A: 40 mg/kg

Q: Which ED50 does the source give for CC(C)N[C@H](C)[C@H](O)c1cccc(C(F)(F)F)c1 here?
A: 40 mg/kg

Q: Which ED50 does the source give for CCC(C)N[C@H](C)[C@H](O)c1cccc(C(F)(F)F)c1 (some centres undefined) here?
A: 31 mg/kg

Q: C[C@@H](NC(C)(C)C)[C@H](O)c1ccc(Cl)cc1 was tested. Which ED50 did it give?
A: 29 mg/kg

Q: How did the ED50 turn out when C[C@H](NC(C)(C)C)[C@H](O)c1ccc(Cl)cc1 was run?
A: 25 mg/kg

Q: For C[C@H](NC(C)(C)C)[C@H](O)c1ccc(Cl)c(Cl)c1, which ED50 is on record?
A: 31 mg/kg

Q: How did the ED50 turn out when CC(NC(C)(C)C)C(O)c1cccc(C(F)(F)F)c1 (racemic; form 2) was run?
A: 25 mg/kg

Q: With CCC(C)(C)N[C@@H](C)[C@H](O)c1cccc(Cl)c1 as the compound, how does the ED50 read?
A: 23 mg/kg

Q: How did the ED50 turn out when O=C1NC(=O)C(c2ccccc2)(c2ccccc2)N1 [PHENYTOIN] was run?
A: 8.5 mg/kg

Q: How did the ED50 turn out when CCC(C)(C)N[C@H](C)[C@H](O)c1cccc(C(F)(F)F)c1 was run?
A: 18 mg/kg

Q: For Cc1ccc([C@@H](O)[C@@H](C)NC(C)(C)C)cc1, which ED50 is on record?
A: 33 mg/kg

Q: How did the ED50 turn out when CCC[C@H](NC(C)(C)C)[C@H](O)c1cccc(C(F)(F)F)c1 was run?
A: 31 mg/kg

Q: Which ED50 does the source give for C[C@@H](NC(C)(C)C)[C@H](O)c1ccc(Cl)c(Cl)c1 here?
A: 13 mg/kg

Q: For C[C@@H](NC1CCCCC1)[C@H](O)c1cccc(Cl)c1, which ED50 is on record?
A: 13 mg/kg

Q: With CC[C@@H](NC(C)(C)C)[C@H](O)c1cccc(Cl)c1 as the compound, how does the ED50 read?
A: 15 mg/kg

Q: CC(C)(C)NCC(O)c1cccc(Cl)c1 (centres undefined) was tested. Which ED50 did it give?
A: 28 mg/kg

Tested on: Mus musculus
Assay: Anticonvulsant activity of compound was tested in mice after intraperitoneal administration in Maximal electroshock assay (MES); Inactive at 40 mg/kg dose
Assay type: functional, organism-based
Design: dose 40 mg/kg
Conditions: not given

Q: With C[C@@H](NC(C)(C)C)[C@H](O)c1cccc([N+](=O)[O-])c1 as the compound, how does the ED50 read?
A: inactive

Q: For C[C@H](NC(C)(C)C)[C@H](O)c1cccc([N+](=O)[O-])c1, which ED50 is on record?
A: inactive

Q: Which ED50 does the source give for Cc1ccc([C@@H](O)[C@H](C)NC(C)(C)C)cc1 here?
A: inactive

Tested on: Mus musculus
Assay: Anticonvulsant activity of compound was tested in mice after intraperitoneal administration in Maximal electroshock assay (MES); Inactive at 30 mg/kg dose
Assay type: functional, organism-based
Design: dose 30 mg/kg
Conditions: not given

Q: C[C@H](NC(C)(C)CO)[C@H](O)c1cccc(Cl)c1 was tested. Which ED50 did it give?
A: inactive

Tested on: Mus musculus
Assay: Anticonvulsant activity of compound was tested in mice after intraperitoneal administration in Maximal electroshock assay (MES); Inactive at 60 mg/kg dose
Assay type: functional, organism-based
Design: dose 60 mg/kg
Conditions: not given

Q: With C[C@H](N)[C@H](O)c1cccc(Cl)c1 as the compound, how does the ED50 read?
A: inactive
